target: human Factor XIIa (Homo sapiens (Human), UniProt P00748); test: Factor XIIa Assay; format: biochemical; conditions: purified human Factor XIIa 500 pM; substrate n-Acetyl-Lys-Pro-Arg-AFC 100 μM; pH 7.4; read-out: FXIIa IC50
Procedure, shortened: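 Purified human FXIIa at 500 pM final with 100 μM n-Acetyl-Lys-Pro-Arg-AFC in 50 mM HEPES, 150 mM NaCl, 5 mM CaCl2, 0.1% PEG 8000, pH 7.4, at room temperature or 37° C. Initial fluorogenic hydrolysis rates measured after enzyme–inhibitor equilibration; IC50 taken where Vi=Vo/2.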

human Factor XIIa, sequence (P00748 373-615): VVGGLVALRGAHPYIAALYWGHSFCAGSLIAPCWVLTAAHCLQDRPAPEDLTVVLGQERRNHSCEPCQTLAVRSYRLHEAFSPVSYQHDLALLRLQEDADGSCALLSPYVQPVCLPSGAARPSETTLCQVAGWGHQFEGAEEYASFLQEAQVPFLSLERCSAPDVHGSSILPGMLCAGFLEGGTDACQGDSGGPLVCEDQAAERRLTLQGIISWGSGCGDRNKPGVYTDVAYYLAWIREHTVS

Row | SMILES | IC50 [nM]
1 | CN(C)CCCC[C@H](C(=O)N1CCN(C2=NC(C)(C)C(c3ccccc3)O2)C[C@H]1C(=O)NCc1cc2cnccc2s1)N(C)C (stereo partly drawn) [Example 147, (2S)-4-(4,4-dimethyl-5-phenyl-4,5-dihydro-1,3-oxazol-2-yl)-1-(N^2,N^2,N^6,N^6-tetramethyl-D-lysyl)-N-(thieno[3,2-c]pyridin-2-ylmethyl)piperazine-2-carboxamide] | 44.1
2 | CN(C)CCCC[C@H](C(=O)N1CCN(C2=NC(C)(C)C(c3ccccc3)O2)C[C@H]1C(=O)NCc1ccc(CN)c(F)c1)N(C)C (stereo partly drawn) [Example 148, (2S)-N-[4-(aminomethyl)-3-fluorobenzyl]-4-(4,4-dimethyl-5-phenyl-4,5-dihydro-1,3-oxazol-2-yl)-1-(N^2,N^2,N^6,N^6-tetramethyl-D-lysyl)piperazine-2-carboxamide] | 12.7
3 | CN(C)CCCC[C@H](C(=O)N1CCN(C2=NC(C)(C)C(c3ccccc3)O2)C[C@H]1C(=O)NCc1ccc(CN)c(Cl)c1)N(C)C (stereo partly drawn) [Example 149, (2S)-N-[4-(aminomethyl)-3-chlorobenzyl]-4-(4,4-dimethyl-5-phenyl-4,5-dihydro-1,3-oxazol-2-yl)-1-(N^2,N^2,N^6,N^6-tetramethyl-D-lysyl)piperazine-2-carboxamide] | 34.9
4 | CN(C)CCCC[C@H](C(=O)N1CCN(C2=NC(C)(C)C(c3ccccc3)O2)C[C@H]1C(=O)NCc1cc(CN)cs1)N(C)C (stereo partly drawn) [Example 150, (2S)-N-{[4-(aminomethyl)thiophen-2-yl]methyl}-4-(4,4-dimethyl-5-phenyl-4,5-dihydro-1,3-oxazol-2-yl)-1-(N^2,N^2,N^6,N^6-tetramethyl-D-lysyl)piperazine-2-carboxamide] | 48.5
5 | C[C@H]1N=C(N2CCN(C(=O)[C@@H](CCCCNS(C)(=O)=O)NC3CCCCC3)[C@H](C(=O)NCc3cccs3)C2)O[C@H]1c1ccccc1 [Example 151, (2S)-1-[N^2-cyclohexyl-N^6-(methylsulfonyl)-D-lysyl]-4-[(4R,5S)-4-methyl-5-phenyl-4,5-dihydro-1,3-oxazol-2-yl]-N-(thiophen-2-ylmethyl)piperazine-2-carboxamide] | 14.2
6 | C[C@@H]1N=C(N2CCN(C(=O)[C@@H](CCCCNS(C)(=O)=O)NC3CCCCC3)[C@H](C(=O)NCc3cccs3)C2)O[C@@H]1c1ccccc1 [Example 152, (2S)-1-[N^2-cyclohexyl-N^6-(methylsulfonyl)-D-lysyl]-4-[(4S,5R)-4-methyl-5-phenyl-4,5-dihydro-1,3-oxazol-2-yl]-N-(thiophen-2-ylmethyl)piperazine-2-carboxamide] | 34.2
7 | COc1cc(CNC(=O)[C@@H]2CN(C3=NC(C)(C)[C@H](c4ccccc4)O3)CCN2C(=O)[C@@H](CCCCN(C)C)N(C)C)ccc1CN [Example 153, (2S)-N-[4-(aminomethyl)-3-methoxybenzyl]-4-[(5S)-4,4-dimethyl-5-phenyl-4,5-dihydro-1,3-oxazol-2-yl]-1-(N^2,N^2,N^6,N^6-tetramethyl-D-lysyl)piperazine-2-carboxamide] | 7.4
8 | COc1cc(CNC(=O)[C@@H]2CN(C3=NC(C)(C)[C@H](c4ccccc4)O3)CCN2C(=O)[C@@H](CCCCN(C)C)N(C)C)ccc1C(N)=O [Example 154, (2S)-N-(4-carbamoyl-3-methoxybenzyl)-4-[(5S)-4,4-dimethyl-5-phenyl-4,5-dihydro-1,3-oxazol-2-yl]-1-(N^2,N^2,N^6,N^6-tetramethyl-D-lysyl)piperazine-2-carboxamide] | 12.4
9 | CN(C)CCCC[C@H](C(=O)N1CCN(C2=NC(C)(C)C(c3ccccc3)O2)C[C@H]1C(=O)NCc1ccc(C(N)=O)cc1)N(C)C (stereo partly drawn) [Example 155, (2S)-N-(4-carbamoylbenzyl)-4-(4,4-dimethyl-5-phenyl-4,5-dihydro-1,3-oxazol-2-yl)-1-(N^2,N^2,N^6,N^6-tetramethyl-D-lysyl)piperazine-2-carboxamide] | 53.6
10 | CC1(C)N=C(N2CCN(C(=O)[C@H](N)CCCCN3CCCCC3)[C@H](C(=O)NCc3cccc(Cl)c3)C2)OC1c1ccccc1 (stereo partly drawn) [Example 156, (2S)-N-(3-chlorobenzyl)-4-(4,4-dimethyl-5-phenyl-4,5-dihydro-1,3-oxazol-2-yl)-1-(6-piperidin-1-yl-D-norleucyl)piperazine-2-carboxamide] | 52.3
11 | CC1(C)N=C(N2CCN(C(=O)[C@H](N)CCCCN3CCCCC3)[C@H](C(=O)NCc3cc(Cl)ccc3-n3cnnn3)C2)OC1c1ccccc1 (stereo partly drawn) [Example 157, (2S)-N-[5-chloro-2-(1H-tetrazol-1-yl)benzyl]-4-(4,4-dimethyl-5-phenyl-4,5-dihydro-1,3-oxazol-2-yl)-1-(6-piperidin-1-yl-D-norleucyl)piperazine-2-carboxamide] | 54.8
12 | CC1(C)N=C(N2CCN(C(=O)[C@H](N)CCCCN3CCCCC3)[C@H](C(=O)NCc3cc4cnccc4s3)C2)OC1c1ccccc1 (stereo partly drawn) [Example 158, (2S)-4-(4,4-dimethyl-5-phenyl-4,5-dihydro-1,3-oxazol-2-yl)-1-(6-piperidin-1-yl-D-norleucyl)-N-(thieno[3,2-c]pyridin-2-ylmethyl)piperazine-2-carboxamide] | 54.4
13 | CC(C)N[C@H](CCCCN1CCCCC1)C(=O)N1CCN(C2=NC(C)(C)C(c3ccccc3)O2)C[C@H]1C(=O)NCc1cc2cnccc2s1 (stereo partly drawn) [Example 159, (2S)-4-(4,4-dimethyl-5-phenyl-4,5-dihydro-1,3-oxazol-2-yl)-1-[N-(1-methylethyl)-6-piperidin-1-yl-D-norleucyl]-N-(thieno[3,2-c]pyridin-2-ylmethyl)piperazine-2-carboxamide] | 27.4
14 | CC(C)N[C@H](CCCCN1CCCCC1)C(=O)N1CCN(C2=NC(C)(C)C(c3ccccc3)O2)C[C@H]1C(=O)NCc1cccc(Cl)c1 (stereo partly drawn) [Example 160, (2S)-N-(3-chlorobenzyl)-4-(4,4-dimethyl-5-phenyl-4,5-dihydro-1,3-oxazol-2-yl)-1-[N-(1-methylethyl)-6-piperidin-1-yl-D-norleucyl]piperazine-2-carboxamide] | 13.8
15 | C[C@@H]1N=C(N2CCN(C(=O)[C@H](N)CCCCN3CCCCC3)[C@H](C(=O)NCc3cccc(Cl)c3)C2)O[C@H]1c1ccccc1 [Example 161, (2S)-N-(3-chlorobenzyl)-4-[(4S,5S)-4-methyl-5-phenyl-4,5-dihydro-1,3-oxazol-2-yl]-1-(6-piperidin-1-yl-D-norleucyl)piperazine-2-carboxamide] | 22
16 | C[C@@H]1N=C(N2CCN(C(=O)[C@H](N)CCCCN3CCCCC3)[C@H](C(=O)NCc3ccc4[nH]cc(Cl)c4c3)C2)O[C@H]1c1ccccc1 [Example 162, (2S)-N-[(3-chloro-1H-indol-5-yl)methyl]-4-[(4S,5S)-4-methyl-5-phenyl-4,5-dihydro-1,3-oxazol-2-yl]-1-(6-piperidin-1-yl-D-norleucyl)piperazine-2-carboxamide] | 8.4
17 | C[C@@H]1N=C(N2CCN(C(=O)[C@H](N)CCCCN3CCCCC3)[C@H](C(=O)NCc3cc4cnccc4s3)C2)O[C@H]1c1ccccc1 [Example 163, (2S)-4-[(4S,5S)-4-methyl-5-phenyl-4,5-dihydro-1,3-oxazol-2-yl]-1-(6-piperidin-1-yl-D-norleucyl)-N-(thieno[3,2-c]pyridin-2-ylmethyl)piperazine-2-carboxamide] | 15
18 | C[C@@H]1N=C(N2CCN(C(=O)[C@H](N)CCCCN3CCCCC3)[C@H](C(=O)NCc3cccs3)C2)O[C@H]1c1ccccc1 [Example 164, (2S)-4-[(4S,5S)-4-methyl-5-phenyl-4,5-dihydro-1,3-oxazol-2-yl]-1-(6-piperidin-1-yl-D-norleucyl)-N-(thiophen-2-ylmethyl)piperazine-2-carboxamide] | 22.8
